Test: Distribution coefficient of carboxylic acids, water / 20% TAPO in Fragoltherm, two-phase co-culture
Format: physicochemical
Conditions: water and 20% TAPO in Fragoltherm, pH 6.6, after 67 h cultivation at 37° C.
Method: The bacterium Clostridium kluyveri was cultivated in a co culture with Clostridium autoethanogenum for the biotransformation of ethanol and acetate to medium chain fatty acids. For the inSitu extraction of the produced acids the aqueous phase was overlayed with a mixture of Fragoltherm Q-32-N with trialkylphosphineoxide (TAPO). All cultivation steps were carried out under anaerobic conditions, the preculture in a stainless steel bubble column loop reactor and the main culture in a pressure-resistant glass bottle that can be closed airtight with a butyl rubber stopper.
The aqueous phase was then overlayed with 20 ml anaerobisized extracting agent (20% trialkylphosphineoxid (TAPO) in Fragoltherm Q-32-N). The bottle with the two-layer phases was then cultivated at 37° C., 150 rpm and with a gas atmosphere of 10% H2 and 90% N2 in an open water bath shaker for 67 h. The gas atmosphere in the bottle was flushed once a day for 10 min with pure N2.
During cultivation several 5 mL samples from both, the aqueous and the organic phase, were taken to determinate OD600 nm, pH and product formation. The determination of the product concentrations in the aqueous phase was performed by semiquantitative 1H-NMR spectroscopy and high performance liquid chromatography (HPLC) and in the organic phase by semiquantitative 1H-NMR spectroscopy and gas chromatography (GC). […]

In the case of `CCCCCCCC(=O)O` [octanoic acid], the “distribution coefficient K(D)” value is reported as 108.
In the case of `CCCCCC(=O)O` [hexanoic acid], the “distribution coefficient K(D)” value is reported as 4.33.

Source: patent US20250230472A1, “EXTRACTION OF ALKANOIC ACIDS” (priority 2018, published 2025)
